In general, IC50 refers to the concentration that gives 50% inhibition. Read a high IC50 as weaker potency.

The source of these data is patent EP4656642A1, “ESTROGEN RECEPTOR PROTEOLYSIS TARGETING CHIMERA COMPOUND AND USE THEREOF” (GAN & LEE PHARM CO., LTD, priority 2023, dated 2024).

What all share (format): cell-based
For one experiment, the system named is MCF-7 cells. In words: Inhibition of cell proliferation of MCF-7 cells (CCK-8, 9 days). The settings on record: treated for 9 days, CCK-8 kit (Table 6). The text has this: Test Example 4 Inhibitory effect of the PROTAC compounds disclosed in the present disclosure on cell proliferation of MCF-7 cells
The complete medium required for MCF-7 cells (source ATCC) was DMEM (gibco, Product number :11995-065) basal medium containing 10% fetal bovine serum. MCF-7 cells were inoculated in 96-well plates at a density of 800 cells/well, and different concentrations of the PROTAC compounds 1-55 provided in the embodiments of the present disclosure and a positive control sample ARV-471 (source: Innochem) were prepared to treat cells, and cells were treated at 37°C in a cell culture incubator with 5% CO2 for 9 days. Cell viability was detected using a CCK -8 kit (Beyotime , Product number: C0040) according to the manufacturer's instruction. […] Table 5 IC50 values for inhibition of the proliferation of MCF-7 cells by the PROTAC compounds of the present disclosure and positive control sample
Background: Formazan colour is commonly taken as a measure of viable cells.

Experiment [1] deals with T1, ERα (Homo sapiens, UniProt P03372).
T1 sequence (P03372 1-595): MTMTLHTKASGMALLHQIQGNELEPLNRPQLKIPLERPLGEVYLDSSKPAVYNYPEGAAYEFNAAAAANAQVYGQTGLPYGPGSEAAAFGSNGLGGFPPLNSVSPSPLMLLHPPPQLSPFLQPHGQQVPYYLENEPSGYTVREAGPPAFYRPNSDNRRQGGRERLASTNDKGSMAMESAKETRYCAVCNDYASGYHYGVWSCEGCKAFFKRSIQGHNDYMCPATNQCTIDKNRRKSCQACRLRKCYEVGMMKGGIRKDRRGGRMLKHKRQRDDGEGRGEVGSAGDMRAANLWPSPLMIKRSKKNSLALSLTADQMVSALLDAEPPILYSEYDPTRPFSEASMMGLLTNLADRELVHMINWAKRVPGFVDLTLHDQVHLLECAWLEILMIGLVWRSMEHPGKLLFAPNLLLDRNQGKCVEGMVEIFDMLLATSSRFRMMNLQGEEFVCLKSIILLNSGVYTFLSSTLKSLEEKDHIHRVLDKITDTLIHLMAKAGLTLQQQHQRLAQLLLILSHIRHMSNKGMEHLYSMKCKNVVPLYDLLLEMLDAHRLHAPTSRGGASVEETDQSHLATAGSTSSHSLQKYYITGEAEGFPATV
In words: Degradation of ERα in MCF-7 cells (immunoblotting, 4 h). The method, then:
MCF-7 cells were inoculated into 6-well plates at a density of 3×10^5 cells/well and cultured at 37°C, 5% CO2 for 24h. After the cells were attached to the wall, 1µL of the compound solution in dimethyl sulfoxide (final concentration 0.15-1000nM) was added and continued to be cultured in incubator at 37°C with 5% CO2 for 4 h. After 4 h, the culture medium was discarded, and each well was washed once with pre-cooled 1×DPBS, and the cells were lysed with a mixture of 50 µL of RIPA lysis buffer (P0013B, Beyotime) and 1× protease inhibitor (P1005, Beyotime), and then centrifuged at 14,000 g for 30 min at 4°C after resting on ice for 20 min, and the supernatant was carefully collected to detect the protein level of ERα by protein immunoblotting (Immunoblotting).
Protein immunoblotting: The total protein concentration in the collected cell lysate supernatant was determined by BCA Protein Concentration Assay Kit (Enhanced) (P0009, Beyotime). According to the total protein concentration detected by BCA, the protein was adjusted to 1 µg/µL with RIPA lysis buffer and 5× SDS-PAGE protein loading buffer (MB01015, Genscript), and the protein was denatured by water bath at 95°C for 5 min, and then centrifuged after denaturation to enrich the condensate on the wall of the centrifuge tubes as a loading sample. […] At the end of electrophoresis, the proteins in the SDS-PAGE gels were transferred to a PVDF membrane at a constant voltage of 100 V for 60 min. After that, the PVDF membrane corresponding to ERα protein and internal reference protein was cut out and incubated in 1×QµickBlock blocking solution (P0252, Beyotime) for 30 min at room temperature on a shaker. […] Protein profiles were analyzed by Image Studio Lite analysis software for grayscale values. Grayscale correction values were calculated for each sample using the Formula: corrected grayscale value = grayscale value of the target protein /corresponding grayscale value of the internal reference. The degradation rate for the compounds was then calculated by comparing the corrected grayscale values of the compound group to the control group. Table 7 Degradation rate (%) of ERα by the PROTAC compounds of the present disclosure and positive control sample in MCF-7 cells
(In general: A western blot detects proteins with antibodies after separation by electrophoresis.)

Experiment [2] has as its target T1, ERα. In words: Degradation of ERα in T-47D cells (immunoblotting, 4 h). On the set-up: host or cells: T-47D. The protocol:
T-47D cells were inoculated into 6-well plates at a density of 3×10^5 cells/well and cultured at 37°C, 5% CO2 for 24 h. After the cells were attached to the wall, 1µL of the compound solution in dimethyl sulfoxide (final concentration 0.15-1000 nM) was added and continued to be cultured in the incubator with 5% CO2 at 37°C for 4 h. After 4 h, the culture medium was discarded, and each well was washed once with pre-cooled 1×DPBS, and the cells were lysed with a mixture of 50 µL of RIPA lysis buffer (P0013B, Beyotime) and 1× protease inhibitor (P1005, Beyotime), and then centrifuged at 14,000 g for 30 min at 4°C after resting on ice for 20 min, and the supernatant was carefully collected to detect the protein level of ERα by protein immunoblotting (Immunoblotting).

As to `O=C1CCC(N2C(=O)c3cc4c(cc3C2=O)OC2(CCN(C3CCN(C5CN(c6ccc([C@@H]7c8ccc(O)cc8CC[C@@H]7c7ccccc7)cc6)C5)CC3)CC2)C4)C(=O)N1` (stereo partly shown) [A59], the half-maximal inhibitory concentration (IC50) with MCF-7 cells stood at 905 nM. The “Degradation rate (%) of ERα in MCF-7 cells” value at ERα [1] (1nM compound) and on ERα [1] (10nM compound) was 11% throughout. For the same compound, the “Degradation rate (%) of ERα in T-47D cells” value at ERα [2] (1nM compound) is 42%; on ERα [2] (10nM compound), 50%.

With `O=C1CCC(N2Cc3cc4c(cc3C2=O)CCC2(CN(CC3CCC5(CC3)CCN(c3ccc([C@@H]6c7ccc(O)cc7CC[C@@H]6c6ccccc6)cc3)CC5)C2)O4)C(=O)N1` (stereo partly shown) [A38], inhibition with MCF-7 cells was half-maximal at 240 nM (IC50). For the same compound, the “Degradation rate (%) of ERα in MCF-7 cells” value is -1% on ERα [1] (1nM compound) and -24% at ERα [1] (10nM compound).

On to `O=C1CCC(N2Cc3cc4c(cc3C2=O)OC2(CC4)CN(C3CN(C4CCN(c5ccc([C@@H]6c7ccc(O)cc7CC[C@@H]6c6ccccc6)cc5)CC4)C3)C2)C(=O)N1` (stereo partly shown) [A56], for which the IC50 in the experiment with MCF-7 cells came to 2790 nM. For the same compound, the “Degradation rate (%) of ERα in T-47D cells” value at ERα [2] (1nM compound) and on ERα [2] (10nM compound) was 38% throughout.

For the compound `CN(C[C@H]1CC[C@H](C(=O)N2CCC3(CC2)COc2c3ccc3c2CN(C2CCC(=O)NC2=O)C3=O)CC1)[C@@H]1CCN(c2ccc([C@@H]3c4ccc(O)cc4CC[C@@H]3c3ccccc3)cc2)C[C@@H]1F` (stereo partly shown) [D12], the results for the “Degradation rate (%) of ERα in MCF-7 cells” value on ERα [1] (1nM compound) and at ERα [1] (10nM compound) were 39% and 61%, respectively. The results for the “Degradation rate (%) of ERα in T-47D cells” value at ERα [2] (1nM compound) and at ERα [2] (10nM compound) were 55% and 81%, respectively.

Regarding `O=C1CCC(N2Cc3c(ccc4c3OCC43CCN(CC(=O)N4CCC5(CC4)CCN(c4ccc([C@@H]6c7ccc(O)cc7CC[C@@H]6c6ccccc6)cc4)CC5)CC3)C2=O)C(=O)N1` (stereo partly shown) [A74], the figures for the “Degradation rate (%) of ERα in MCF-7 cells” value at ERα [1] (1nM compound) and at ERα [1] (10nM compound) were 28% and 62%, respectively. The figures for the “Degradation rate (%) of ERα in T-47D cells” value at ERα [2] (1nM compound) and on ERα [2] (10nM compound) were 73% and 87%, respectively.

With `O=C1CCC(N2C(=O)c3ccc4c(c3C2=O)OCC42CCN(C3CC4(CCN(c5ccc([C@@H]6c7ccc(O)cc7CC[C@@H]6c6ccccc6)cc5)CC4)C3)CC2)C(=O)N1` (stereo partly shown) [L17], the “Degradation rate (%) of ERα in MCF-7 cells” value was -2% on ERα [1] (1nM compound) and 10% on ERα [1] (10nM compound). Moreover, the “Degradation rate (%) of ERα in T-47D cells” value stood at 24% at ERα [2] (1nM compound) and 23% at ERα [2] (10nM compound).

In the experiment on MCF-7 cells (Homo sapiens, MCF7, 216 h), `C[C@]12CC[C@@H]3c4ccc(O)cc4CC[C@H]3[C@@H]1CC[C@@H]2O` [E2] came in with an IC50 of 34.8 nM.

On to `O=C1CCC(N2Cc3c(ccc4c3OCC43CCN(S(=O)(=O)[C@H]4CC[C@H](C(=O)N5CCN(c6ccc([C@@H]7c8ccc(O)cc8CC[C@@H]7c7ccccc7)cc6)CC5)CC4)CC3)C2=O)C(=O)N1` (stereo partly shown) [G26], for which, in the experiment with MCF-7 cells, the IC50 worked out at 32400 nM. Moreover, the “Degradation rate (%) of ERα in MCF-7 cells” value at ERα [1] (1nM compound) worked out at 37%; at ERα [1] (10nM compound), 66%.

`CC1(C(=O)N2CCC(N3CCC4(CC3)COc3c4ccc4c3CN(C3CCC(=O)NC3=O)C4=O)CC2)CCN(c2ccc([C@@H]3c4ccc(O)cc4CC[C@@H]3c3ccccc3)cc2)CC1` (stereo partly shown) [N 1] had a half-maximal inhibitory concentration (IC50) with MCF-7 cells of 14.8 nM.

For `O=C1CCC(N2C(=O)c3cc4c(cc3C2=O)OC2(CC4)CN(CC3CCN(c4ccc([C@@H]5c6ccc(O)cc6CC[C@@H]5c5ccccc5)cc4)CC3)C2)C(=O)N1` (stereo partly shown) [H1], the results for the “Degradation rate (%) of ERα in MCF-7 cells” value on ERα [1] (1nM compound) and on ERα [1] (10nM compound) were -13% and -16%, respectively. For the same compound, the “Degradation rate (%) of ERα in T-47D cells” value at ERα [2] (1nM compound) is recorded as -6%; at ERα [2] (10nM compound) it was -15%.

Regarding `O=C1CCC(N2Cc3cc4c(cc3C2=O)CCC2(CN(C3CN(C5CCN(c6ccc([C@@H]7c8ccc(O)cc8CC[C@@H]7c7ccccc7)cc6)CC5)C3)C2)O4)C(=O)N1` (stereo partly shown) [A57], the half-inhibitory concentration (IC50) in the experiment with MCF-7 cells stood at 2790 nM. Moreover, the results for the “Degradation rate (%) of ERα in T-47D cells” value on ERα [2] (1nM compound) and on ERα [2] (10nM compound) were 34% and 43%, respectively.

For the compound `O=C1CCC(N2Cc3c(ccc4c3OCC43CCN(C[C@H]4CC[C@H](OC5CCN(c6ccc([C@@H]7c8ccc(O)cc8CC[C@@H]7c7ccccc7)cc6)CC5)CC4)CC3)C2=O)C(=O)N1` (stereo partly shown) [G24], the “Degradation rate (%) of ERα in T-47D cells” value on ERα [2] (1nM compound) turned out to be 47%; at ERα [2] (10nM compound), 81%.
